Marks after values point to notes of the source that are not given here.
Assays:
[1] = Blood glucose in fasting rats; type: in vivo, rat; details: 24 hour fasting rats, 100 ug intraperitoneal; for Blood glucose mean ± s.e.m.: 20 minutes after administration
Procedure: Gilatide administered intraperitoneally (IP), but not intranasally (IN), lowers blood glucose levels in rats fasted for 24 hours. […] Gilatide's effect on blood glucose in fasting rats was measured. Groups of 24 hour fasting rats (n=5 or 6) were delivered either vehicle, insulin, Gilatide, GLP-1, exendin-4, Insulin A-chain, Insulin B-chain or C-peptide. Glucose levels were measured 20 minutes following intraperitoneal administration. All peptides were given at a dose of 100 ug (Table 2). In this experiment, insulin, the positive control, led to a 44% drop in blood glucose. Gilatide led to a significant drop in glucose level by 14%.

[2] = tested on: rats; test: Elevated plus maze test (anxiogenic effects); type: in vivo, rat; set-up: TIME Open Arm / TIME Closed Arm: unit not given here
Procedure: (§1) The elevated plus maze consists of two open and two closed arms; time spent and the number of entries into open arms are indicators of neophobic anxiety in rats. The number of entries and total time spent in the open arms were tabulated over 5 min by an observer blind to the experimental condition. Animals falling off the apparatus were eliminated from the study. For the intracerebroventricular (i.c.v.) studies, rats were implanted with a cannula (22 gauge, Plastics One, Roanoke, Va.) into the left ventricle (AP 0.8 mm, ML 1.6 mm, DV 3.5 mm from dura) then allowed at least 3-4 days to recover. The peptides were infused in a total volume of 2 μl (1 μl min −1) 25 min before training with two trials per day for 5 days. The visual platform test was conducted after the last training trial on day 5 in a different location of the pool.

[3] = tested on: rat insulinoma cell line expressing the GLP-1R (RINm5f); test: ELISA of culture media for insulin, RINm5f cells; type: cell-based; details: 10 nM peptide, 6 hours
Procedure: To confirm biologic activity of Gilatide peptides or analogs, a rat insulinoma cell line expressing the GLP-1R (RINm5f) can be cultured and incubated the Gilatide peptide or analogs followed by an ELISA study as described below.
To confirm biological activity of synthesized Gilatide peptide ([Ser(2)]exendin(1-9)) that was synthesized with a stearic acid residue added to the N-terminus, GLP-1 or [Ser(2)]exendin(1-9) (10 nM) were incubated with the cultured rat insulinoma cell line expressing the GLP-1R (RINm5f) in the presence or absence of the GLP-1R antagonist, exendin(9-39) (10 nM). Rat insulinoma cells (RINm5f) were cultured in 24 well plates and incubated in serum-free medium for 1 hour before treatment. The GLP-1 peptide antagonist exendin (9-39) (10 nM) was added 1 hour prior to GLP-1 (7-36) or [Ser(2)]exendin(1-9) (10 nM). Cells were then incubated for 6 hours in the presence of either GLP-1 or [Ser(2)]exendin(1-9). Media were then removed and assayed for insulin concentrations via ELISA (Pennisula Labs, San Carlos, Calif.).

[4] = tested on: rats; test: Passive avoidance (PA), associative learning in rats; type: in vivo, rat
Procedure: Passive avoidance was performed in an apparatus (MED Associates Inc., St. Albans, Vt.) consisting of one dark chamber and one light chamber that can be divided by a guillotine door. The training procedure was executed as previously described (N. Venable et al. Psychopharmacology 100, 215 (1990)). Rats were administered a 1.0 mA shock for 3 sec, mice a 0.5 mA shock for 5 sec. Retention tests were performed either at 1, 3 or 7 days post-pairing. Maximum latency was 600 sec for rats, 300 sec for mice.
In the instant invention, rats were pretreated intranasally with one of three dose levels (10 μg/kg, 30 μg/kg, or 60 μg/kg) of Gilatide in 5% β cyclodextrin or an octamer having a sequence homology to CRH and urocortin. […] A control group received vehicle (5% cyclodextrin) alone. With three dose levels for each of the peptides studied, a total of seven (7) groups were employed, each group having 5-8 rats, for a total of 50 rats tested. On the first day of conditioning, the pretreated rats (N=7-13) were administered a single foot shock trial (0.1 mA over 3 seconds) after entering the dark compartment. The animals were replaced in the test apparatus and latencies again were measured on Days 1, 3, 7, and 21 following the aversive stimulus.
Rats were pretreated with either […] 10 μg/kg Gilatide in 5% β cyclodextrin or vehicle by one of three routes of administration: intranasally, subcutaneously, or intraperitoneally. On Day 0, the rats (N=7-13) were conditioned by administration of a single foot shock trial (0.1 mA over 3 seconds) after entry into the dark compartment of a passive avoidance apparatus (the same passive avoidance chamber used in the first series of experiments). At 24 hours (Day 1) following the initial test, and delivery of the single shock, the animals were replaced in the test apparatus and latency again measured. (FIG. 7)
Rates (N=5-10) were pretreated intranasally with one of five dose levels (0.1 μg/kg, 1 μg/kg, 3 μg/kg, 30 μg/kg or 60 μg/kg) of Gilatide in 5% β cyclodextrin, vehicle (5% cyclodextrin), or Nicotine (0.3 mg/kg, subcutaneously). On Day 0, the rats were conditioned by administration of a single foot shock trial (0.1 mA over 3 seconds) after entry into the dark compartment of a passive avoidance apparatus (the same passive avoidance chamber used in the other experiments). The preconditioned rats were retested on Days 1, 3, 7, and 21.
The effect of Gilatide was tested on memory consolidation by administering the peptide after shock testing. Rats (N=7-13) were preconditioned by administering a single foot shock trial (0.1 mA over 3 seconds) after entering the dark compartment of a passive avoidance apparatus. Twenty (20) minutes after the conditioning session, one group of rats was administered 10 μg/kg of Gilatide intranasally (TRN-TXT). Another group of rats (TXT-DLY-TRN) was administered this same dose of Gilatide 24 hours after the conditioning session. Both treatment groups were returned to the test apparatus 24 hours following treatment and latencies were again measured. […] (FIG. 13)
The effects of Gilatide when used with or without an Exendin-4 antagonist were observed and measured. Rats (N=6-13) were pretreated with either 10 μg/kg or 20 μg/kg of Gilatide with or without an Exendin-4 antagonist (10 μg/kg). A control group was administered vehicle alone. The pretreated rats were conditioned on Day 0 by administration of a single foot shock trial (0.1 mA over 3 seconds) after entry into the dark compartment of a passive avoidance apparatus (the same passive avoidance chamber used in the other experiments). The preconditioned rats were retested on 24 hours later. […] (FIG. 14)
Twenty-four hours later the rats were returned to the apparatus and retested. […] (FIG. 15)

[5] = tested on: rats; test: Morris Water Maze (MWM), spatial learning in rats; type: in vivo, rat; details: for acquisition of spatial learning: intranasal (arecoline s.c.), four trials
Procedure: Spatial learning was assessed using the Morris Water Maze (Morris et al. Nature, 1982, 297: 681). Information was relayed via a tracker (HSV Image, Hampton, UK) to a personal computer, which was quantified by a specialized computer program (Water 2020, Hampton, UK). The acquisition study was performed as described previously. Animals were anaesthetized with isofluorane then administered peptide intra-nasally 20 min before testing. Rats were given four training trials. 48 h after training, a retention test was performed: rats were allowed to find the hidden platform for one trial. Mice initially had six trials without treatment to habituate them to the procedure. The following day, they were administered vehicle or [Ser(2)]exendin(1-9) (SEQ ID NO:1) and trained for an additional four trials with the platform in a new location. For a retention test, mice were given one trial to locate the platform the next day. Latency to find the platform was considered a measure of retention of spatial learning.
as §1
In another series of experiments, rats (N=15-16) were pretreated with either Gilatide (10 μg/kg, 30 μg/kg, or 60 μg/kg) or vehicle and then trained for four trials in a Morris Water Maze. Two days following training, the rats were retested. Latency to find a submerged platform in the Morris Water Maze paradigm was measured.
Clinically approved treatments for cognitive impairment act primarily on the cholinergic system. The effects of intranasal GLP-1 and [Ser(2)]exendin(1-9) were compared with that of the cholinergic agonist arecoline on spatial learning in a modified version of the MWM (Setlow, B. et al. Learn. Mem, 2000. 7: 187). Rats were first administered vehicle, [Ser(2)]exendin(1-9), GLP-1 or arecoline, and trained for four trials to locate a submerged platform. They were then tested in a single retention trial 48 hours after initial training. There were no differences between treatments in acquisition (FIG. 10A).

[6] = Blood glucose in fasting rats; type: in vivo, rat; details: for blood glucose: intra-nasal
[7] = tested on: rats; test: Elevated plus maze test (anxiogenic effects); type: in vivo, rat; set-up: TIME Open Arm / TIME Closed Arm: unit not given here; details: 10 ng ICV
[8] = tested on: rats; test: Contextual fear conditioning in rats; type: in vivo, rat; details: vs naïve and EGFP controls
Procedure: Fear conditioning was performed in a modified apparatus (MED Associates Inc., St. Albans, Vt.) housed in a sound attenuated cubicle. […] The animal was placed in the chamber and the occurrence of freezing behavior measured every 10 sec for 2 min before a shock was administered (rats, […], 2 sec; mice, 0.5 mA, 5 sec). Freezing behavior was measured again (for 5 min) the next day. The apparatus was cleaned with 1% acetic acid following conditioning of each animal.
To determine whether increasing GLP-1R levels in the hippocampus would enhance learning, rAAV vectors expressing control EGFP vector and GLP-1R were generated and injected into the hippocampus of rats. See Example 1(vi) for protocol. Three weeks following vector injection, robust hippocampal expression was obtained (data not shown) with transgene mRNA expression in the principal cell groups of the hippocampus. […] See Example 1 (vii) for protocol. A separate group of rats treated in the same manner was trained twice daily for 5 days in the MWM. […] The decrease in latency was not due to increased swimming speed (both GLP-1R and EGFP controls were approx. 23 cm/sec) nor stress effects (Table 4). Furthmore, the decreased latency was not due to a disruption in visual acuity and general locomotion and swimming ability, because rats from both groups located a visual platform in a similar manner (approx. 32±3 sec latency). […]

[9] = i.c.v., GLP-1 10 ng and 100 ng, [Ser(2)]exendin(1-9) 10 ng

In the case of C peptide, the “Blood glucose mean ± s.e.m.” value [1] is reported as 90.3 ± 8.9 mg/dL.
For C1CCc2nnnn2CC1 [PTZ], the “ENTRIES Closed Arm” value ([2]; 20 mg/kg IP) was 1.6 ± 0.4, the “ENTRIES Open Arm” value ([2]; 20 mg/kg IP) was 0*** and the “TIME Closed Arm” value ([2]; 20 mg/kg IP) was 249.6 ± 13.32. The “TIME Open Arm” value ([2]; 20 mg/kg IP) was 0***.
With “Insulin A chain: inactive insulin fragment” the “Blood glucose mean ± s.e.m.” value [1] was 90.3 ± 4.7 mg/dL.
With “HAEGTFTSDVSSVLEGQAAKEFIAWLVKGR [GLP-1, glucagon-like peptide 1]” the “insulin release into culture media” value [3] was “stimulated insulin release”, the “latency in PA” value [4, 9] was “enhanced latency” and the “latency (not shown)” value ([5]; 100 ng i.c.v.) was “decrease latency”. The “distance traveled to locate the platform” value ([5]; i.c.v., vs control rats) was “significantly reduced distance traveled”, the swimming speed ([5]; i.c.v., vs vehicle) was “decrease swimming speed” and the “acquisition of spatial learning” value ([5]; modified MWM) was “did not affect acquisition of spatial learning”. The “Blood glucose mean ± s.e.m.” value [1] was 89.5 ± 1.1 mg/dL, the “ENTRIES Closed Arm” value ([2]; 10 μg IN) was 4.8 ± 1.0 and the “ENTRIES Open Arm” value ([2]; 10 μg IN) was 1.11 ± 0.3. For the same compound, the “TIME Closed Arm” value ([2]; 10 μg IN) was 171.8 ± 10^+, the “TIME Open Arm” value ([2]; 10 μg IN) was 11.6 ± 4 and the “ENTRIES Closed Arm” value ([2]; 30 μg IN) was 2.1 ± 0.4. The “ENTRIES Open Arm” value ([2]; 30 μg IN) was 1.33 ± 0.4, the “TIME Closed Arm” value ([2]; 30 μg IN) was 197.2 ± 18 and the “TIME Open Arm” value ([2]; 30 μg IN) was 22.1 ± 10. The “anxiogenic effect, time spent in closed arms” value ([2]; intranasal) was “anxiogenic”, the blood glucose ([6]; 3 μg) was 73.8 ± 2.2 P < 0.05 mg/dl and the blood glucose ([6]; 10 μg) was 70.6 ± 2.5 P < 0.01 mg/dl. The blood glucose ([6]; 30 μg) was 71.2 ± 2.1 P < 0.05 mg/dl, the “fasting blood glucose levels” value ([6]; intranasal) was “lowered fasting blood glucose levels” and the “ENTRIES Closed Arm” value [7] was 2.7 ± 0.5. The “ENTRIES Open Arm” value [7] was 0.7 ± 0.4, the “TIME Closed Arm” value [7] was 198.3 ± 29 and the “TIME Open Arm” value [7] was 16.7 ± 11.
With COc1cccc(-c2cc(=O)c3ccccc3o2)c1N [PD98059] the “effect on enhancement of associative learning by intranasal [Ser(2)]exendin(1-9)” value ([4]; PD98059 5 μg i.c.v. before (PRE) training) was “not when given before (PRE) training” and the “effect on enhancement of associative learning by intranasal [Ser(2)]exendin(1-9)” value ([4]; PD98059 5 μg i.c.v. immediately after training (POST)) was “completely blocked”.
For NC(=O)CC[C@@H]1NC(=O)[C@H](Cc2ccccc2)NC(=O)[C@H](Cc2ccc(O)cc2)NC(=O)[C@@H](N)CSSC[C@@H](C(=O)N2CCC[C@H]2C(=O)N[C@@H](CCCN=C(N)N)C(=O)NCC(N)=O)NC(=O)[C@H](CC(N)=O)NC1=O [vasopressin], the “latency in PA” value [4, 9] was “enhanced latency” and the “latency in the PA test” value ([4]; intranasal, [Ser(2)]exendin(1-9) 3, 10, 30 μg, vasopressin 0.3 μg (FIG. 9A)) was “increased latency”.
In the case of Insulin, the “drop in blood glucose” value ([1]; 20 minutes) is reported as 44% and the “Blood glucose mean ± s.e.m.” value [1] is reported as 50.7 ± 8.2 (P < 0.01) mg/dl.
For Cc1ncc2n1-c1ccc(Cl)cc1C(c1ccccc1F)=NC2 [Midazolam], the “ENTRIES Closed Arm” value ([2]; 1.5 mg/kg IP) was 5.1 ± 0.5, the “ENTRIES Open Arm” value ([2]; 1.5 mg/kg IP) was 6.6 ± 0.7 and the “TIME Closed Arm” value ([2]; 1.5 mg/kg IP) was 89.2 ± 15. The “TIME Open Arm” value ([2]; 1.5 mg/kg IP) was 141.3 ± 18.
In the case of “Insulin B chain: inactive insulin fragment”, the “Blood glucose mean ± s.e.m.” value [1] is reported as 100 ± 4.9 mg/dL.
With CN1CCCC1c1cccnc1 (stereo not drawn) [nicotine] the “latency in PA” value ([4]; 0.3 mg/kg subcutaneously, 24 hours) was “modestly increased latencies”.
In the case of COC(=O)C1=CCCN(C)C1 [arecoline], the “latency to locate the submerged platform in the retention trial” value ([5]; modified MWM, 48 hours after training, [Ser(2)]exendin(1-9) 30 μg intranasal, arecoline 0.3 mg s.c.) is reported as “significantly reduced the latency”, the “acquisition of spatial learning” value ([5]; modified MWM) is reported as “did not affect acquisition of spatial learning” and the “freezing behavior in contextual fear conditioning” value [8] is reported as “enhanced freezing behavior”.

From US20050222036A1, “Peptide compositions with effects on blood glucose” (priority 2000, published 2005)
